Structures can show the parent of a compound that is named as a salt.
How the values were obtained:
[1] = storage stability of the solid amorphous form; type: physicochemical
Source text: Solid amorphous valganciclovir hydrochloride is provided herein. The amorphous valganciclovir hydrochloride can be produced with no detectable crystalline valganchloride hydrochloride present, based on XRD investigations having a limit of detection of 0.5%.
The mixture of amorphous valganciclovir hydrochloride containing some crystalline form is then substantially converted to an amorphous form by dissolving it in water (optionally containing an organic solvent) followed by spray-drying of the solution as described earlier. Crystalline formation at this stage can be inhibited by storage under nitrogen in the strict absence of atmosphere or other water. The amorphous material has been found stable for up to at least 3 months with proper storage.

human cytomegalovirus = conditions: in vitro and in vivo; cited from earlier work
[2] = administered orally; cited from earlier work

SMILES | time for which the material was found stable ([1]; proper storage (under nitrogen, absence of water)) | stability on storage ([1]; stored under controlled humidity conditions) | stability profile compared with the crystalline form ([1]; versus existing crystalline form) | replication of human cytomegalovirus (human cytomegalovirus) | rate of absorption [2]
CC(C)[C@@H](N)C(=O)OCC(CO)OCn1cnc2c(O)nc(N)nc21 (stereo partly drawn) [Amorphous valganciclovir hydrochloride, L-valinate ester of 2-(2-amino-1,6-dihydro-6-oxo-purin-9-yl)-methoxy-3-hydroxy-1-propanyl hydrochloride salt] | at least 3 months | stable when stored under controlled humidity conditions | superior stability profile to the existing crystalline form |  | 
Nc1nc(O)c2ncn(COC(CO)CO)c2n1 [Ganciclovir] |  |  |  | inhibits replication of human cytomegalovirus in vitro and in vivo | very low rate of absorption

— patent US20070129385A1, “Amorphous valganciclovir hydrochloride” (priority 2003, published 2007)
